Experiments:
[1] = test system: Patients with type 2 diabetes inadequately controlled by sulphonylurea and metformin; experiment: Fibrinogen concentration by the von Clauss clotting method; format: in vivo, human; conditions: type 2 diabetes patients
Method: For test meal data, postprandial glucose incremental AUC0-4h is calculated at baseline and week 52.
Fibrinogen activity is measured by the von Clauss clotting method. By the von Clauss clotting method, thrombin is added to a test sample and the time until clotting is measured. Fibrinogen concentration is determined by comparing clotting time for the test sample to the clotting time of a standard curve for various reference plasmas.
Fibrinogen is measured at baseline, Week 16, Week 52, or at early termination of the study.

[2] = test system: Patients with type 2 diabetes inadequately controlled by sulphonylurea and metformin; experiment: Lipoprotein subclass particle concentrations and average particle diameters by proton NMR spectroscopy, 1-year open-label trial (test meal study); format: in vivo, human; conditions: change from baseline to endpoint (week 52), type 2 diabetes patients
Method: In the context of the present invention, lipoprotein concentrations are measured according to standard nuclear magnetic resonance techniques, where the measured amplitudes of characteristic lipid methyl group signals provide particle concentrations.
In the context of the present invention, lipoprotein subclass particle concentrations and average particle diameters are measured using proton nuclear magnetic resonance spectroscopy using the algorithm of LipoScience, Inc. See e.g., Festa et al., Nuclear Magnetic Resonance Lipoprotein Abnormalities in Prediabetic Subjects in the Insulin Resistance Artherosclerosis Study, Circulation, 111:3465-3472 (2005). […]
Lipoprotein subclass particle concentrations and average particle diameters are measured using proton nuclear magnetic resonance spectroscopy. See e.g., Festa et at., Nuclear Magnetic Resonance Lipoprotein Abnormalities in Prediabetic Subjects in the Insulin Resistance Artherosclerosis Study, Circulation, 111:3465-3472 (2005).
The particle concentrations of different lipoprotein subclasses are obtained by measuring the amplitudes of the characteristic lipid methyl NMR signals. The signal amplitudes of various subclasses are extracted from the overall lipid methyl group signal with a spectral deconvolution algorithm (Lipo Science, Inc.). See e.g., Festa. VLDL and LDL particle concentrations are given in nanomoles per liter. HDL particle concentrations are provided in micromoles per liter.
Average particle sizes (in nanometers diameter) are computed as the sum of the diameter of the particle subclass multiplied by the relative mass percentage of the subclass as estimated from the amplitude of its methyl NMR signal.
Particle concentrations and sizes are compared before and after administration of an exendin or exendin agonist. See e.g., Table 1.

biphasic insulin aspart 30/70
Fibrinogen level, mean, Baseline ([1]; baseline, before treatment): 4.22 g/L | Fibrinogen level, mean, Endpoint (LOCF) ([1]; endpoint, last post-baseline measurement carried forward (Week 16, Week 52 or early termination)): 4.16 g/L | HDL Particle Size, Δ mean [2]: +0.04 nm | VLDL Particle Size, Δ mean [2]: −1.6 nm | LDL Particle Size, Δ mean ([2]; exenatide 5 μg BID 4 weeks then 10 μg BID 48 weeks vs biphasic insulin aspart 30/70): +0.11 nm | Large HDL, Δ mean ([2]; particle concentration): +1.0 μmol/L | Large LDL, Δ mean ([2]; particle concentration): +37.7 nmol/L | Small LDL, Δ mean ([2]; particle concentration): -25.8 nmol/L | Small VLDL, Δ mean ([2]; particle concentration): +8.5 nmol/L | Total HDL, Δ mean ([2]; particle concentration): +2.5 μmol/L | Total LDL, Δ mean ([2]; particle concentration): +5.0 nmol/L | Total VLDL, Δ mean ([2]; particle concentration): +12.9 nmol/L | Very Small LDL, Δ mean ([2]; particle concentration): -17.0 nmol/L
